From patent publication US11110084B2, “Opioid formulations” (Camurus AB, priority 2012, dated 2021) come the findings set out here.

The conditions of the series: disodium fluorescein 5 mg/g, 0.1 g in 2 ml PBS.

As for `O=C([O-])c1ccccc1-c1c2ccc(=O)cc-2oc2cc([O-])ccc12.[Na+].[Na+]` [Fluo, disodium fluorescein], the “% release (37° C.) 72 h” value was “about 0.4%”.
